Measurements taken from the NIST ThermoML archive (doi:10.1016/j.fluid.2007.06.007).

Experiment: excess molar enthalpy (molar enthalpy of mixing); xn = mol fraction of the nth substance listed
Conditions: 101 kPa, Liquid, Calvet calorimetry

CCCCn1cc[n+](C)c1.F[P-](F)(F)(F)(F)F [1-butyl-3-methylimidazolium hexafluorophosphate] + CCO
Conditions | excess molar enthalpy [kcal/mol]
288.15 K, x2 = 0.001144 | 0.00208
288.15 K, x2 = 0.002285 | 0.00415
288.15 K, x2 = 0.003423 | 0.00629
288.15 K, x2 = 0.004559 | 0.00822
288.15 K, x2 = 0.005692 | 0.0104
288.15 K, x2 = 0.006823 | 0.0126
288.15 K, x2 = 0.007951 | 0.0147
288.15 K, x2 = 0.009076 | 0.0168
298.15 K, x2 = 0.001112 | 0.00206
298.15 K, x2 = 0.002231 | 0.00395
298.15 K, x2 = 0.003346 | 0.00578
298.15 K, x2 = 0.004465 | 0.00775
298.15 K, x2 = 0.005584 | 0.00937
298.15 K, x2 = 0.006698 | 0.0112
298.15 K, x2 = 0.007812 | 0.0132
298.15 K, x2 = 0.008925 | 0.015
308.15 K, x2 = 0.00114 | 0.00243
308.15 K, x2 = 0.002261 | 0.00429
308.15 K, x2 = 0.00339 | 0.00632
308.15 K, x2 = 0.004524 | 0.00838
308.15 K, x2 = 0.005658 | 0.0101
308.15 K, x2 = 0.006787 | 0.0119
308.15 K, x2 = 0.007915 | 0.0139
308.15 K, x2 = 0.009044 | 0.0158
318.15 K, x2 = 0.001144 | 0.00253
318.15 K, x2 = 0.002294 | 0.00499
318.15 K, x2 = 0.00344 | 0.00687
318.15 K, x2 = 0.004591 | 0.00876
318.15 K, x2 = 0.005741 | 0.011
318.15 K, x2 = 0.006886 | 0.0133
318.15 K, x2 = 0.008031 | 0.0153
318.15 K, x2 = 0.009176 | 0.0174

CCO [ethanol] + O
298.15 K
Conditions | excess molar enthalpy [kcal/mol]
x1 = 0.000102 | -0.000249
x1 = 0.000206 | -0.000497
x1 = 0.000308 | -0.000746
x1 = 0.000412 | -0.000992
x1 = 0.000516 | -0.00124
x1 = 0.000619 | -0.00148
x1 = 0.000723 | -0.00173
x1 = 0.000827 | -0.00197
x1 = 0.000931 | -0.00222
x1 = 0.001034 | -0.00246
x1 = 0.001138 | -0.00271
x1 = 0.001241 | -0.00295
x1 = 0.001345 | -0.00319
x1 = 0.001448 | -0.00343
x1 = 0.001551 | -0.00367
x2 = 0.001021 | -0.000507
x2 = 0.00205 | -0.00101
x2 = 0.003074 | -0.00151
x2 = 0.004102 | -0.002
x2 = 0.00513 | -0.00248
x2 = 0.006155 | -0.00296
x2 = 0.007179 | -0.00343
x2 = 0.008203 | -0.0039
x2 = 0.009225 | -0.00437
x2 = 0.01024 | -0.00484
x2 = 0.01125 | -0.00529
x2 = 0.01226 | -0.00575
x2 = 0.01328 | -0.00619
x2 = 0.01428 | -0.00664
x2 = 0.01529 | -0.00708

CCCCCCC [heptane] + CCO
298.15 K
Conditions | excess molar enthalpy [kcal/mol]
x1 = 0.00013 | 0.0001
x1 = 0.000261 | 0.000201
x1 = 0.000392 | 0.000304
x1 = 0.000524 | 0.000402
x1 = 0.000655 | 0.00049
x1 = 0.000787 | 0.000588
x1 = 0.000919 | 0.000679
x1 = 0.001051 | 0.000767
x1 = 0.001183 | 0.000865
x1 = 0.001314 | 0.000954
x1 = 0.001445 | 0.00105
x1 = 0.001577 | 0.00114
x2 = 0.000794 | 0.00457
x2 = 0.001594 | 0.0088
x2 = 0.002391 | 0.0129
x2 = 0.003191 | 0.0168
x2 = 0.003992 | 0.0205
x2 = 0.00479 | 0.0239
x2 = 0.005589 | 0.027
x2 = 0.006387 | 0.0299
x2 = 0.007185 | 0.0325
x2 = 0.007976 | 0.0349
x2 = 0.008768 | 0.0371
x2 = 0.009558 | 0.0391
